Source: the supplement of paper PMC11451515

Columns and labels:
Conditions in all cases: 48 h
SEM cells [1] = experiment: cell viability relative to DMSO control; higher = less cytotoxic
Outline: (§1)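 Three leukemia lines were tested: NOMO1 and SEM at 500 cells/well and P12-Ichikawa at 1000 cells/well. Each was adapted for at least four passages in each medium and seeded in 5 μl in 1536-well plates, and library compounds in DMSO were pin-dosed from 47 μM to 0.79 nM in 11 threefold steps. After 48 h at 37°C, CellTiter-Glo One luminescence was read. Viability is a percentage relative to DMSO wells on each plate, with cell-free wells as background.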

NOMO1 [2] = experiment: AUC of viability dose-response curve (% viability x log10 dose units); higher = less sensitive
Outline: (§2)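 Library compounds in DMSO were applied for 48 h at 37°C at 11 threefold doses (47 μM to 0.79 nM) to medium-adapted leukemia cells in 1536-well plates holding 500 or 1000 cells/well. Luminescence from CellTiter-Glo One was normalised plate by plate against DMSO and cell-free wells. Area under the curve came from trapezoidal integration of a log-logistic fit, after scaling curves that rose above full viability and discarding those that failed quality control. The fit had four parameters and used log10 doses.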

P12-Ichikawa [3] = experiment: as above
Outline: as §2

SEM cells [4] = experiment: as above
Outline: as §2

NOMO1 [5] = experiment: cell viability relative to DMSO control; higher = less cytotoxic
Outline: as §1

P12-Ichikawa [6] = experiment: as above
Outline: as §1

N[C@@H]1C[C@H]1c1ccccc1
SEM cells [1], HPLM + 10% dialyzed FBS
Conditions | cell viability [%]
0.000781 µM | 122
0.00234 µM | 115
0.00702 µM | 148
0.0211 µM | 124
0.0632 µM | 107
0.19 µM | 137
0.569 µM | 131
1.71 µM | 119
5.12 µM | 107
15.4 µM | 117
46.1 µM | 109

AUC of viability dose-response curve
Conditions | NOMO1 [2] | P12-Ichikawa [3] | SEM cells [4]
HPLM + 10% dialyzed FBS | 464 | 437 | 449
RPMI 5 mM glucose + 10% FBS | 468 | 462 | 456
RPMI 5 mM glucose + 10% dialyzed FBS | 465 | 459 | 457

c1ccc2c(CCNc3ccc(Nc4ccncc4)cc3)c[nH]c2c1
AUC of viability dose-response curve
Conditions | NOMO1 [2] | P12-Ichikawa [3] | SEM cells [4]
HPLM + 10% dialyzed FBS | 426 | 444 | 312
RPMI 5 mM glucose + 10% FBS | 430 | 429 | 282
RPMI 5 mM glucose + 10% dialyzed FBS | 425 | 418 | 308

F\C1=C\NC(=O)NC1=O
AUC of viability dose-response curve
Conditions | NOMO1 [2] | P12-Ichikawa [3] | SEM cells [4]
HPLM + 10% dialyzed FBS | 414 | 405 | 407
RPMI 5 mM glucose + 10% FBS | 437 | 435 | 410
RPMI 5 mM glucose + 10% dialyzed FBS | 422 | 413 | 412

CC(C)[C@]12O[C@H]1[C@@H]3O[C@@]34[C@@]5(C)CC\C6=C(COC6=O)/[C@@H]5C[C@@H]7O[C@]47[C@@H]2O
cell viability [%]
Conditions | NOMO1 [5] | P12-Ichikawa [6] | SEM cells [1]
HPLM + 10% dialyzed FBS, 0.000781 µM | 118 | 97.5 | 88.8
HPLM + 10% dialyzed FBS, 0.00234 µM | 7.83 | 9.15 | 8.24
HPLM + 10% dialyzed FBS, 0.00702 µM | 7.37 | 6.65 | 7.05
HPLM + 10% dialyzed FBS, 0.0211 µM | 6.84 | 7.98 | 7.2
HPLM + 10% dialyzed FBS, 0.0632 µM | 8.16 | 9.04 | 8.43
HPLM + 10% dialyzed FBS, 0.19 µM | 7.58 | 8.65 | 7.98
HPLM + 10% dialyzed FBS, 0.569 µM | 7.57 | 9.22 | 7.67
HPLM + 10% dialyzed FBS, 1.71 µM | 6.99 | 8.95 | 7.16
HPLM + 10% dialyzed FBS, 5.12 µM | 6.9 | 8.4 | 5.34
HPLM + 10% dialyzed FBS, 15.4 µM | 3.84 | 6.67 | 3.24
HPLM + 10% dialyzed FBS, 46.1 µM | 2.95 | 4.18 | 2.08
RPMI 5 mM glucose + 10% FBS, 0.000781 µM | 107 | 102 | 70.6
RPMI 5 mM glucose + 10% FBS, 0.00234 µM | 6.29 | 16.6 | 5.86
RPMI 5 mM glucose + 10% FBS, 0.00702 µM | 7.04 | 8.24 | 5.11
RPMI 5 mM glucose + 10% FBS, 0.0211 µM | 6.27 | 5.66 | 4.85
RPMI 5 mM glucose + 10% FBS, 0.0632 µM | 7.93 | 7.99 | 5.84
RPMI 5 mM glucose + 10% FBS, 0.19 µM | 7.51 | 8.04 | 5.43
RPMI 5 mM glucose + 10% FBS, 0.569 µM | 6.66 | 7 | 4.78
RPMI 5 mM glucose + 10% FBS, 1.71 µM | 6.58 | 6.95 | 4.12
RPMI 5 mM glucose + 10% FBS, 5.12 µM | 5 | 5.74 | 3.56
RPMI 5 mM glucose + 10% FBS, 15.4 µM | 4.13 | 4.33 | 2.23
RPMI 5 mM glucose + 10% FBS, 46.1 µM | 1.89 | 2.61 | 1.15
RPMI 5 mM glucose + 10% dialyzed FBS, 0.000781 µM | 106 | 101 | 107
RPMI 5 mM glucose + 10% dialyzed FBS, 0.00234 µM | 5.9 | 10.6 | 6.37
RPMI 5 mM glucose + 10% dialyzed FBS, 0.00702 µM | 5.75 | 8.79 | 6.75
RPMI 5 mM glucose + 10% dialyzed FBS, 0.0211 µM | 5.32 | 7.77 | 6.32
RPMI 5 mM glucose + 10% dialyzed FBS, 0.0632 µM | 6.01 | 9.01 | 7.36
RPMI 5 mM glucose + 10% dialyzed FBS, 0.19 µM | 6.39 | 8.98 | 7.3
RPMI 5 mM glucose + 10% dialyzed FBS, 0.569 µM | 5.39 | 9.99 | 6.55
RPMI 5 mM glucose + 10% dialyzed FBS, 1.71 µM | 5.08 | 9.74 | 6.33
RPMI 5 mM glucose + 10% dialyzed FBS, 5.12 µM | 4.8 | 9.21 | 4.78
RPMI 5 mM glucose + 10% dialyzed FBS, 15.4 µM | 3.96 | 6.99 | 3.05
RPMI 5 mM glucose + 10% dialyzed FBS, 46.1 µM | 2.22 | 5.18 | 2.21

AUC of viability dose-response curve
Conditions | HPLM + 10% dialyzed FBS | RPMI 5 mM glucose + 10% FBS | RPMI 5 mM glucose + 10% dialyzed FBS
NOMO1 [2] | 49.2 | 49 | 45.7
P12-Ichikawa [3] | 59 | 56.8 | 62.8
